From article PMC7938330 (Toxicology in vitro : an international journal published in …, 2020)
pIC50: −log10 of the molar value.

Target: Complex V (ATP synthase complex) (Bos taurus, UniProt P00829+P05631+P19483)
Assay: immunocapture-based OXPHOS activity assay
Type: biochemical

Structure (SMILES): C1CCC(C(CC2CCCCN2)C2CCCCC2)CC1 (stereo not shown) [perhexiline]
- pIC50: 8.00
